Experimental data reported in publication PMC12116161, “An Elastase Inhibitor ShSPI from Centipede Attenuates Bleomycin-Induced Pulmonary Fibrosis” (Toxins, 2025).

System: MCP-1, IL-6, IL-1β, IFN-γ, IL-10, TGF-β mRNA in lung tissue
Experiment: RT-qPCR of inflammatory factor mRNA in lung tissue of IPF mice
Assay type: in vivo, ICR mice
Details: pirfenidone 200 mg/kg oral gavage once daily for 7 days, BLM-induced IPF mice
Description: Animal Model Preparation: The peptide powder was dissolved in pre-cooled saline and filtered to remove bacteria, then a spray needle was attached to a micro-syringe to aspirate the peptide solution. A total of 56 ICR mice were anesthetized by intramuscular injection of avertin. After anesthesia, the mice were fixed supine, the tongue was gently pulled, the vocal folds were exposed with a laryngoscope, the trachea was gently inserted, and the nebulized solution was rapidly pushed and injected. Each mouse was administered 100 μL of a 0.4 mg/mL bleomycin solution via tracheal spray, with the treatment performed once. Seven days after modeling, the mice were randomly grouped for ShSPI treatment based on weight loss scores. An additional 8 mice received the vehicle (normal saline) and were designated as the sham group.
A total of 48 suitable mice were randomly divided into five groups: the model control group (MC), the positive control group (PC), and the ShSPI low-dose groups (1 mg/kg), medium-dose groups (2 mg/kg), and high-dose groups (4 mg/kg).
Drug Administration: Starting on day 7 post-modeling, ShSPI peptide treatment groups were anesthetized with intramuscular avertin and received tracheal spray administration of the peptide. The low-dose group was treated with 1 mg/kg ShSPI peptide, the medium-dose group with 2 mg/kg, and the high-dose group with 4 mg/kg. The positive control group, without anesthesia, received 200 mg/kg pirfenidone (IPFD) via oral gavage. All groups were treated once daily for seven consecutive days.
The left lobe of the lung was collected from each mouse for total RNA extraction using RNAiso Plus, following the manufacturer’s instructions. The extracted RNA was quantified using a UV spectrophotometer. One microgram of total RNA was reverse transcribed into cDNA using a first-strand cDNA synthesis kit, following the provided protocol. Quantitative PCR (qPCR) was performed on a QuantStudio system using 2× SYBR Green qPCR Master Mix, and β-actin served as the internal control. The PCR reaction utilized a two-step protocol: 95 °C for 15 s, followed by 60 °C for 60 s, repeated for 40 cycles. Gene expression levels were calculated using the 2^−ΔΔCt method.

Cc1ccc(=O)n(-c2ccccc2)c1 [pirfenidone, reference compound]
mRNA content of pro-inflammatory cytokines (MCP-1, IL-6, IL-1β, IFN-γ) in lung tissue: reduction
